Tested on: Aedes aegypti UGAL mosquito strain (adult female)
Experiment: Mortality assay on treated filter paper
Format: in vivo
Conditions: 0.5% solution; within the first 20 minutes; FIG. 4
Experimental: A mortality assay was employed to evaluate mosquito mortality in response to exposure to eleven different treatments including water, a series of NKT dilutions, and 0.5% permethrin. The Aedes aegypti UGAL mosquito strain (adult female) was used in this example.
The experiments were conducted in a well-lit, temperature- and humidity-controlled room. The room was 22-24° C. with humidity at 40-45%. To conduct these experiments, each treatment had four replicates under the same conditions. A filter paper, 10 cm in diameter, was treated with 340 μl of an experimental or control solution using a standardized spray bottle (113.3 μl/spray) that was held approximately 5 cm away from the paper. The treated filter paper was placed into an open petri dish with a diameter of 10 cm. […] Female mosquitoes were then anesthetized on ice for five minutes. After 60 minutes, 10 ice-anesthetized adult female mosquitoes were transferred onto the treated paper using soft featherweight forceps. The petri dish lid was placed on top, and the mosquitoes were given two minutes to revive before the timer was started. Mosquitoes were then monitored every five minutes. Mosquitoes on their back were considered knocked down and marked as deceased in these experiments. […] Log-rank (Mantel-Cox) test was performed for comparison of survival curves.

`CC1(C)C(C=C(Cl)Cl)C1C(=O)OCc1cccc(Oc2ccccc2)c1` (stereo not shown) [permethrin] was tested, and the knockdown effect was “strong immediate knockdown effect”.

From US20240057595A1, “INSECT REPELLENT COMPOSITIONS” (Manus Bio Inc., priority 2020, published 2024)
